Where two headings read alike, the source gives them in different places.
Assays:
PPARγ = conditions: cited from earlier work
human PPARγ (hPPARγ) = target: T1, human PPARγ (hPPARγ) (Homo sapiens, UniProt P37231); test: Transactivation reporter assay (chimeric GAL4-PPAR reporter-gene assay in CV-1 cells); assay type: cell-based; conditions: for EC50: CV-1 cells, 48 h, luciferase, triplicate
T1 construct: expressed in transfected cells; host or cells: CV-1 cells
T1 sequence (P37231 238-503 limits assumed): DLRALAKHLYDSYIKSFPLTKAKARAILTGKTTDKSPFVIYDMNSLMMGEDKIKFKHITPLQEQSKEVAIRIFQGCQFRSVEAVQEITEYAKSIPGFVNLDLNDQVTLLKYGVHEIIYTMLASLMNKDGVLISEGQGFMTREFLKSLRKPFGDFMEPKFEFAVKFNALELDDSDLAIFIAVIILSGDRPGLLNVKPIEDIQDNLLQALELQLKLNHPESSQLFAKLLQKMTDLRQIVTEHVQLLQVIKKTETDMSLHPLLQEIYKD
Method: Briefly, chimeric receptor expression plasmid pcDNA3-hPPARγ/GAL4 was prepared by inserting the yeast GAL4 transcription factor DNA-binding domain adjacent to the hPPARγ LBD domain. The reporter plasmid, p(UAS)5-tk-luc, was generated by inserting five copies of the GAL4 response element upstream of the herpesvirus minimal thymidine kinase promoter and the luciferase reporter gene. The chimeric receptor expression plasmid and reporter plasmid were cotransfected into CV-1 cells. The transfected cells were cultured with or without each tested compound for 48 h and then steady-state luminescence intensity was measured with a microplate luminometer (Turner Biosystems). All compounds were purchased from Sigma-Aldrich and ChemPartner, and dissolved in dimethyl sulfoxide (<0.1% v/v). Each assay was carried out in triplicate.

[1] = literature value, ref Xu et al. [2001], read-out: Agonistic activity EC50

In the case of `COC(=O)/C(=C/c1cc(OC)cc(OC)c1)c1ccc(Oc2ccc(CC3SC(=O)NC3=O)cc2)cc1` (stereo not drawn) [CLX-0921], the EC50 (PPARγ; literature value, ref Dey et al. [2003], read-out: Agonistic activity EC50) is given as 284 nM.

For `CC1(COc2ccc(CC3SC(=O)NC3=O)cc2)CCCCC1` (stereo not drawn) [Ciglitazone], the EC50 (PPARγ; literature value, ref Willson et al. [1996], read-out: Agonistic activity EC50) is listed as 3000 nM.

In the case of `CC(C)O[C@@H](Cc1cccc(OC[C@H](F)COc2ccc(Cl)cc2C#N)c1)C(=O)O` [E3030], the EC50 (PPARγ; literature value, ref Kasai et al. [2008], read-out: Agonistic activity EC50) is listed as 34 nM.

In the case of `CCCCc1nc(Cl)c(C=O)n1Cc1ccc(-c2ccccc2-c2nn[nH]n2)cc1` [EXP3179], the EC50 (PPARγ; literature value, ref Schupp et al. [2006], read-out: Agonistic activity EC50) is given as 17000 nM.

For `C/C(=C/C(=O)c1ccccc1)N[C@@H](Cc1ccc(OCCc2nc(-c3ccccc3)oc2C)cc1)C(=O)O` [GW409544], the EC50 (PPARγ; [1]) is listed as 0.28 nM.

In the case of `CN(CCOc1ccc(CC2SC(=O)NC2=O)cc1)c1ccccn1` (stereo not drawn) [Rosiglitazone], the EC50 (PPARγ; [1]) is given as 18 nM and the EC50 (PPARγ; previous report, ref Xu et al. [2001], read-out: EC50 (converted)) is given as 18 nM.

Work on `O=C(N/N=C/c1ccc(-c2ccc([N+](=O)[O-])cc2)o1)c1ccccc1` [ZINC44179] yielded an Agonistic intensity (human PPARγ (hPPARγ)) of 78% and an EC50 (human PPARγ (hPPARγ)) of 350 ± 60 nM.

Compound `CC1=NN(CN2CCOCC2)C(=O)/C1=N\Nc1ccc(C(=O)O)cc1` [ZINC13408172] has an Agonistic intensity (human PPARγ (hPPARγ)) of 116% and an EC50 (human PPARγ (hPPARγ)) of 84 ± 15 nM.

— paper PMC6130577, “Rational screening of peroxisome proliferator-activated receptor-γ agonists from natural products: potential therapeutics for heart failure” (Pharmaceutical Biology, 2016)
